Source: publication PMC11465068 (Journal of Lipid Research, 2024)

Biological target: T1, rhSphK1 (recombinant human sphingosine kinase 1) (Homo sapiens, UniProt Q9NYA1)
T1 construct: gene SPHK1; commercial recombinant human enzyme from two manufacturers
Assay: S1P formation by LC-MS/MS
Type: biochemical
Conditions: […] sphingosine, […] ATP, […] MgCl2, […] °C, […] h; range over two enzyme sources

T1 sequence (Q9NYA1 whole entry): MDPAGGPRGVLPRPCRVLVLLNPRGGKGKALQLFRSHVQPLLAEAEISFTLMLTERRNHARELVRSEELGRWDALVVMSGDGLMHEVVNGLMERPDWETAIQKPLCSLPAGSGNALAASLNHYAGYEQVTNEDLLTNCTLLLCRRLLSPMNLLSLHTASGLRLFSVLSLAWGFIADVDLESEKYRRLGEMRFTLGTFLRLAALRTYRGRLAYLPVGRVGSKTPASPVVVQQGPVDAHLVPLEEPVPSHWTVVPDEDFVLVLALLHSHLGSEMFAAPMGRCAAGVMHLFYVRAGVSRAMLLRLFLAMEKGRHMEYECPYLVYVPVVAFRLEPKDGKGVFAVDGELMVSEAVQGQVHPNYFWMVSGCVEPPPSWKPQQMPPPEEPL

% reduction of S1P formation at 50 μM: 32-34%
Structure (SMILES): O=C(NCc1ccncc1)C12CC3CC(C1)CC(c1ccc(Cl)cc1)(C3)C2 [ABC294640]
